Literature values as cited in patent US20140148378A1, “ANTIBACTERIAL PEPTIDES” (THE REGENTS OF THE UNIVERSITY OF CALIFORNIA, priority 2012, published 2014).

Key:
[1] = from bioactive peptide databases / literature
[2] = lactoferricin versus human lactoferrin

| Substance | Known activity of overlapping literature bioactive peptide [1] | bactericidal effects relative to the parent protein [2] |
| --- | --- | --- |
| YQRRPAIAINNPYVPRTYYANPAVVRPHAQIPQRQYLPNSHPPTVVRRPNLHPSF (listed as Homo sapiens) [SEQ ID NO: 504] | Antibacterial | – |
| lactoferricin | – | 10-100 times |
| QELLLNPTHQYPVTQPLAPVHNPISV (listed as Homo sapiens) [SEQ ID NO: 506] | Antibacterial | – |
| QPTIPFFDPQIPK (listed as Homo sapiens) [SEQ ID NO: 505] | Immuno- | – |
